Test results taken from ChEMBL document CHEMBL3351764, “Design, synthesis and biological activity of flavonoid derivatives as selective agonists for neuromedin U 2 receptor” (Bioorg Med Chem, 2014).
The source made the active and inactive calls. No cut-off for these calls is given here.

Key:
[1] = molecular target: D(1B) dopamine receptor (Homo sapiens) (UniProt P21918); assay: Agonist activity at human D5 receptor at 100 uM to 5 mM
[2] = molecular target: T1, Adenosine receptor A3 (Homo sapiens) (UniProt P0DMS8); assay: Agonist activity at human A3 receptor at 100 uM to 5 mM
T1 sequence (whole entry): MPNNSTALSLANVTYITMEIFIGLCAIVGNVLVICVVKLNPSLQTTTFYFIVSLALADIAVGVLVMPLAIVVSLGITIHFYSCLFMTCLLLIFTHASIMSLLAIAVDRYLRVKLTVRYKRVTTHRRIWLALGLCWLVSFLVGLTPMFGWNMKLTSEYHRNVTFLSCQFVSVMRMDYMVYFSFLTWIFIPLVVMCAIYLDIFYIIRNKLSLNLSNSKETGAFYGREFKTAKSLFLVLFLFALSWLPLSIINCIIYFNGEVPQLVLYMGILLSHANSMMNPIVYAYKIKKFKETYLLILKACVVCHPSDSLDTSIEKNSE

[3] = molecular target: Adrenocorticotropic hormone receptor (Mus musculus) (UniProt Q64326); assay: Agonist activity at mouse MC2 receptor at 100 uM to 5 mM
Sequence of Adrenocorticotropic hormone receptor (Mus musculus) (Q64326 whole entry): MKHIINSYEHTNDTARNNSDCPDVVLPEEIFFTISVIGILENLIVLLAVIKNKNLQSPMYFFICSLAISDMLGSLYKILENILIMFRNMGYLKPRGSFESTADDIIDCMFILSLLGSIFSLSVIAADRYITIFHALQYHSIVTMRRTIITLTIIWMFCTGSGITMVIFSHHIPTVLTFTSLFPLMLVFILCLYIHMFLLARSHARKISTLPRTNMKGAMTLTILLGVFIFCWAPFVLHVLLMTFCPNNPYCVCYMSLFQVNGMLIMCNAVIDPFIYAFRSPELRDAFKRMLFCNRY

[4] = molecular target: T2, Parathyroid hormone/parathyroid hormone-related peptide receptor (Homo sapiens) (UniProt Q03431); assay: Agonist activity at human PTH receptor at 100 uM to 5 mM
T2 sequence (whole entry): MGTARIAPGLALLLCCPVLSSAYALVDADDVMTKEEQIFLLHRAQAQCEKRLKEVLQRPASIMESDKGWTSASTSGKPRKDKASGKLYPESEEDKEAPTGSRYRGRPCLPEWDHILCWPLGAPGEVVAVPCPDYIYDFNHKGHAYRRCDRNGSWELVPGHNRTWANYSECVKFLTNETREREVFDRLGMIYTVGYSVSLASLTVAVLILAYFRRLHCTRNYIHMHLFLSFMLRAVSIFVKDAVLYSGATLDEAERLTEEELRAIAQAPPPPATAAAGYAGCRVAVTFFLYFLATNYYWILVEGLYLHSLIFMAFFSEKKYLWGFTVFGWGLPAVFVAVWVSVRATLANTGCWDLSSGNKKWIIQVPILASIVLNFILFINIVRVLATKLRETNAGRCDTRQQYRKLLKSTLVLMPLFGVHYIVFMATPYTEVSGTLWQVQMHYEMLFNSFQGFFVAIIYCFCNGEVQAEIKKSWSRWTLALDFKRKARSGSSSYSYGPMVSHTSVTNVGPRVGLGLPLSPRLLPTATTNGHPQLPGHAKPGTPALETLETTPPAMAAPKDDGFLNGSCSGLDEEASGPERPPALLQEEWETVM

[5] = molecular target: Melanin-concentrating hormone receptor 1 (Homo sapiens) (UniProt Q99705); assay: Agonist activity at human MCH1 receptor at 100 uM to 5 mM
Sequence of Melanin-concentrating hormone receptor 1 (Homo sapiens) (Q99705 whole entry): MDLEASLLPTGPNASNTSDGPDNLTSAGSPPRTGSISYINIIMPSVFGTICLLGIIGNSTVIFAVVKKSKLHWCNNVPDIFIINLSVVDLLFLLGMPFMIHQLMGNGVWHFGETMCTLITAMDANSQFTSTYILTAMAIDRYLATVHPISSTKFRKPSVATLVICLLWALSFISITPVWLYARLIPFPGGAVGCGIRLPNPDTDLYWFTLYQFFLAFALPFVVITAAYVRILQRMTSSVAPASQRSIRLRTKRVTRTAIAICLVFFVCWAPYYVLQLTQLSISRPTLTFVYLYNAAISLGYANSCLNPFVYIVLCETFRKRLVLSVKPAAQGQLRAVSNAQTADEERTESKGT

[6] = molecular target: Melanocortin receptor 4 (Mus musculus) (UniProt P56450); assay: Agonist activity at mouse MC4 receptor at 100 uM to 5 mM
Sequence of Melanocortin receptor 4 (Mus musculus) (P56450 whole entry): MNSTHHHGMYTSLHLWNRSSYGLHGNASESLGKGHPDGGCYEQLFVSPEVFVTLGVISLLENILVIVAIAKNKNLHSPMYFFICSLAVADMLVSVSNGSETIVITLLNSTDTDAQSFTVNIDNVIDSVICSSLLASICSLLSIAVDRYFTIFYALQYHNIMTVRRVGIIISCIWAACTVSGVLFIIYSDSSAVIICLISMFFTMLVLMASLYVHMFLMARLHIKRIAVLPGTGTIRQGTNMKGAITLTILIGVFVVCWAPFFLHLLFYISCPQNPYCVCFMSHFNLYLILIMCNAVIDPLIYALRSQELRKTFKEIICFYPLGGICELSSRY

[7] = molecular target: T3, 5-hydroxytryptamine receptor 2C (Homo sapiens) (UniProt P28335); assay: Agonist activity at human 5HT2C receptor at 100 uM to 5 mM
T3 sequence (whole entry): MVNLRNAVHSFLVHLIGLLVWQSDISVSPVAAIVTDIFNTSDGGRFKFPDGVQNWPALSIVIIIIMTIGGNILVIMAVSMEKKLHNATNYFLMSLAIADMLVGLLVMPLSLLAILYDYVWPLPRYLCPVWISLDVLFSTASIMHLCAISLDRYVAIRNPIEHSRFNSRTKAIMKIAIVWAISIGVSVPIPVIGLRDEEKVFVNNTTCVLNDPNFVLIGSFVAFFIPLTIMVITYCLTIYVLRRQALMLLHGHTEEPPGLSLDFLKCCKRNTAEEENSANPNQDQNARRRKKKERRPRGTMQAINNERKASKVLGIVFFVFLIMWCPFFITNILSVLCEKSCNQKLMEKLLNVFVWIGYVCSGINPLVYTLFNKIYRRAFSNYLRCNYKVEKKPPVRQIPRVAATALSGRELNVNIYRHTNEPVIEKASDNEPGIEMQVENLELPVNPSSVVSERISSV

[8] = molecular target: Melanocortin receptor 5 (Mus musculus) (UniProt P41149); assay: Agonist activity at mouse MC5 receptor at 100 uM to 5 mM
Sequence of Melanocortin receptor 5 (Mus musculus) (P41149 whole entry): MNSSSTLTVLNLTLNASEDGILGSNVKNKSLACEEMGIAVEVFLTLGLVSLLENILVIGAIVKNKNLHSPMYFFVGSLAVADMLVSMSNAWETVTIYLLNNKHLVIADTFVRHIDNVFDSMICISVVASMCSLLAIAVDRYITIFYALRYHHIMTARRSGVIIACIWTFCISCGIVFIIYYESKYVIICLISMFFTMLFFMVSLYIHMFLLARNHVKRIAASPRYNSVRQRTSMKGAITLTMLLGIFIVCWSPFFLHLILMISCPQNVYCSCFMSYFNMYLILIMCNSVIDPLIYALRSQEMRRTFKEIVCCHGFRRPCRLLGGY

[9] = molecular target: T4, Neuropeptide Y receptor type 5 (Homo sapiens) (UniProt Q15761); assay: Agonist activity at human NPY5 receptor at 100 uM to 5 mM
T4 sequence (whole entry): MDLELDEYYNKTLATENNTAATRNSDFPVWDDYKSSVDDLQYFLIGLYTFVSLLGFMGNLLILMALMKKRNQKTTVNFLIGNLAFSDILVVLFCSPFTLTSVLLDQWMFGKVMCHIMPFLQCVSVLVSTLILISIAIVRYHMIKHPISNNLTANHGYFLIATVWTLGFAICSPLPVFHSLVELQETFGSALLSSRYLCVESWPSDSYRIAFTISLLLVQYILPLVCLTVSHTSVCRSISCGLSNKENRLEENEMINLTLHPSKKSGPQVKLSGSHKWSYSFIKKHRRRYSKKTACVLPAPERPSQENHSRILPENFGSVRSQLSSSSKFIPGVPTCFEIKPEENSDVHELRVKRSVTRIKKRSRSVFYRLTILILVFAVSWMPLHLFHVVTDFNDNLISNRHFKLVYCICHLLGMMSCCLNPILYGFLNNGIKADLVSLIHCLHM

[10] = molecular target: Adrenocorticotropic hormone receptor (Homo sapiens) (UniProt Q01718); assay: Agonist activity at human MC2 receptor at 100 uM to 5 mM
Sequence of Adrenocorticotropic hormone receptor (Homo sapiens) (Q01718 whole entry): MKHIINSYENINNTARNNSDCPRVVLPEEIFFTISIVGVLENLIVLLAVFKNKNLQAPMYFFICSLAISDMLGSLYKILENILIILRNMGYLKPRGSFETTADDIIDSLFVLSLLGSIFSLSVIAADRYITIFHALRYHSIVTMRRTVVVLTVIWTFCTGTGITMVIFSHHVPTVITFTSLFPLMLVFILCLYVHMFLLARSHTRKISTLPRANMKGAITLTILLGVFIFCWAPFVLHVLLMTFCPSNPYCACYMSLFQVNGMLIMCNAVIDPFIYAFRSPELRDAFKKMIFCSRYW

Sequence of D(1B) dopamine receptor (Homo sapiens) (P21918 whole entry): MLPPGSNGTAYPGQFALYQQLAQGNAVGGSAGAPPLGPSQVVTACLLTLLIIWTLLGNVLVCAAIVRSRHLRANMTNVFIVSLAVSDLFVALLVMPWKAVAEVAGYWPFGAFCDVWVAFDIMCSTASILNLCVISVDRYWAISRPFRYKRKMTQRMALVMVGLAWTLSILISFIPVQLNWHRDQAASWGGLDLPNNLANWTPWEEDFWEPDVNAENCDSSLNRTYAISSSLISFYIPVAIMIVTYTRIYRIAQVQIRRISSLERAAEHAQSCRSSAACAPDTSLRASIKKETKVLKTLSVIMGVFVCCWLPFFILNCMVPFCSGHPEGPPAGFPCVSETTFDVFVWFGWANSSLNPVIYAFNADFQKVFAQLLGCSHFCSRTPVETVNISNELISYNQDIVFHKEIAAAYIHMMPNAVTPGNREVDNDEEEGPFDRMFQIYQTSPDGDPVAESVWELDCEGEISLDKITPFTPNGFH

| Compound | Activity [1] | Activity [2] | Activity [3] | Activity [4] | Activity [5] | Activity [6] | Activity [7] | Activity [8] | Activity [9] | Activity [10] |
| --- | --- | --- | --- | --- | --- | --- | --- | --- | --- | --- |
| CN(C)c1ccc(C2C=Cc3ccccc3O2)cc1 (racemic) | inactive | inactive | inactive | inactive | inactive | inactive | inactive | inactive | inactive | inactive |
| O=c1cc(-c2ccc(O)cc2)oc2ccccc12 | inactive | inactive | inactive | inactive | inactive | inactive | inactive | inactive | inactive | inactive |
| O=c1cc(-c2ccccc2F)oc2ccccc12 | inactive | inactive | inactive | inactive | inactive | inactive | inactive | inactive | inactive | inactive |
| COc1ccc(-c2cc(=O)c3ccccc3o2)cc1O | inactive | inactive | inactive | inactive | inactive | inactive | inactive | inactive | inactive | inactive |
| COc1cc(-c2cc(=O)c3ccccc3o2)ccc1O | inactive | inactive | inactive | inactive | inactive | inactive | inactive | inactive | inactive | inactive |
| O=c1c(O)c(-c2ccc(O)cc2)oc2ccccc12 | inactive | inactive | inactive | inactive | inactive | inactive | inactive | inactive | inactive | inactive |
| COc1ccc(C2C=Cc3ccccc3O2)cc1 (racemic) | inactive | inactive | inactive | inactive | inactive | inactive | inactive | inactive | inactive | inactive |
| CCN(CC)c1ccc(-c2oc3ccccc3c(=O)c2O)cc1 | inactive | inactive | inactive | inactive | inactive | inactive | inactive | inactive | inactive | inactive |

The next lines start with the values.

| Activity [1] | Activity [2] | Activity [3] | Activity [4] | Activity [5] | Activity [6] | Activity [7] | Activity [8] | Activity [9] | Activity [10] | Compound |
| --- | --- | --- | --- | --- | --- | --- | --- | --- | --- | --- |
| inactive | inactive | inactive | inactive | inactive | inactive | inactive | inactive | inactive | inactive | O=c1c(O)c(-c2ccccc2F)oc2ccccc12 |
| inactive | inactive | inactive | inactive | inactive | inactive | inactive | inactive | inactive | inactive | COc1ccc(-c2oc3ccccc3c(=O)c2O)cc1O |
| inactive | inactive | inactive | inactive | inactive | inactive | inactive | inactive | inactive | inactive | COc1cccc(-c2oc3ccccc3c(=O)c2O)c1 |
| inactive | inactive | inactive | inactive | inactive | inactive | inactive | inactive | inactive | inactive | O=c1c(O)c(-c2cccc(Br)c2)oc2ccccc12 |
| inactive | inactive | inactive | inactive | inactive | inactive | inactive | inactive | inactive | inactive | CCOC(=O)COc1c(-c2cc(Br)ccc2F)oc2ccccc2c1=O |
| inactive | inactive | inactive | inactive | inactive | inactive | inactive | inactive | inactive | inactive | O=c1c(O)c(-c2cccc(Cl)c2F)oc2ccccc12 |
| inactive | inactive | inactive | inactive | inactive | inactive | inactive | inactive | inactive | inactive | COc1c(-c2cc(Br)ccc2F)oc2ccccc2c1=O |
| inactive | inactive | inactive | inactive | inactive | inactive | inactive | inactive | inactive | inactive | O=c1c(O)c(-c2ccc(Br)cc2F)oc2ccccc12 |
| inactive | inactive | inactive | inactive | inactive | inactive | inactive | inactive | inactive | inactive | COc1cc(-c2oc3ccccc3c(=O)c2O)ccc1O |
